Data reported in patent publication US20210401834A1 (IMBRIA PHARMACEUTICALS, INC., priority 2020, published 2021).
Like-named read-outs stand apart in the source and are kept apart here. One block for each molecule: values may come before it.

Experiments:
[1] = human, in vivo, 150 mg
[2] = human, in vivo, 200 mg
From the text: The MR formulation of IMB-1018972 to be administered on Day 13 under fed conditions was 1 of the 4 MR formulations administered on Days 1, 4, 7, and 10 under fasted conditions.
The effect of food on the relative oral bioavailability of IMB-1018972 following a single oral administration was explored. This occurred in the single-dose MR part where subjects received the same dose, first under fasted conditions and then under fed conditions.

[3] = Phase 1 FIH study, single-dose MR part: safety and tolerability; assay type: in vivo, human
[4] = Phase 1 FIH study, multiple-dose MR part: safety and tolerability; assay type: in vivo, human
[5] = Phase 1 FIH study: overall safety (vital signs, 12-lead ECG); assay type: in vivo, human; conditions: after administration as the MR formulations, healthy subjects
Protocol: These assessments were made using an automated device. Body temperature and respiratory rate were measured subsequently.
Safety and tolerability were assessed through AEs, clinical laboratory, vital signs, ECGs, continuous cardiac monitoring (telemetry), and physical examination findings, and any other parameter that was relevant for safety assessment.

[6] = Decomposition kinetics of CV-8972 in media simulating the GI tract, 37° C., 0.2 mg/mL (HPLC); assay type: physicochemical
Protocol: The solution stability of CV-8972 was evaluated in multiple media currently used to simulate dissolution and stability conditions in the various sections of the GI tract. As CV-8972 will be subject to hydrolysis as it is dissolving in the GI tract, it will be important to understand these kinetics in terms of designing instant and controlled-release formulations. HPLC methods were used to perform these assessments.

[7] = BCS classification from solubility and permeability
From the text: CV-8972 can therefore be considered as BCS Class 1 per se, but the pre-systemic metabolism to CV-8814 and possibly other metabolites may complicate and impact the actual biopharmaceutical absorption profile found in humans.

[8] = pH stability profile of a 1 mg/mL solution of CV-8972 at 23° C.; assay type: physicochemical
Protocol: The pH stability profile is summarized and shown in Table 2 for a 1 mg/mL solution of CV-8972 at 23° C.
The hydrolysis proceeds via the first step shown in FIG. 1, as Nicotinic acid and CV-8814 are the only decomposition products generated. The optimal pH for solution stability appears to be around pH 5-5.1 for a 1 mg/mL solution with acid-catalyzed hydrolysis increasing at pH values less than 5.0 and base-catalyzed hydrolysis increasing above pH 5.0.

Cmax lower under fed relative to fasted conditions [1]: approximately 36% | effect of food on exposure parameters AUC0-t and AUC0-inf [1]: No evidence for an effect of food | Cmax higher under fed relative to fasted conditions [2]: approximately 42% | effect of food on exposure parameters AUC0-t and AUC0-inf [2]: No evidence for an effect of food | food effect estimate for AUC0-inf (ratio of geometric means fed/fasted) [2]: 1.16 | food effect estimate for AUC0-t (ratio of geometric means fed/fasted) [2]: 1.16 | food effect estimate for Cmax (ratio of geometric means fed/fasted) [2]: 1.42
Structure (SMILES): COc1ccc(CN2CCN(CCO)CC2)c(OC)c1OC [CV-8814, 2-[4-[(2,3,4-trimethoxyphenyl)methyl]piperazin-1-yl]ethanol]

half-life at 0.2 mg/mL ([6]; 0.1M HCl, pH 1, 0.1M HCl, pH 1.0, no surfactants): 3.13 h | half-life at 0.2 mg/mL ([6]; FaSSGF, pH 1.6, FaSSGF, pH 1.6): 48.5 h | half-life at 0.2 mg/mL ([6]; FaSSIF, pH 6.5, FaSSIF, pH 6.5): 13.5 h | half-life at 0.2 mg/mL ([6]; FeSSIF (medium simulating the GI tract), pH 5.8, FeSSIF, pH 5.8): 99.6 h | half-life at 0.2 mg/mL ([6]; pH 6, BiCarb adj (0.1M HCl neutralized with sodium bicarbonate), pH 6-8.2): 1.52 h | BCS class [7]: BCS Class 1 | half-life at 1 mg/mL ([8]; 20 mM ammonium acetate buffer, pH 5.05, 20 mM Am. Acetate): 658 h | half-life at 1 mg/mL ([8]; 20 mM phosphate buffer, pH 3.52, 20 mM Phos): 254 h | half-life at 1 mg/mL ([8]; 20 mM phosphate buffer, pH 6.5, 20 mM Phos): 61.9 h | half-life at 1 mg/mL ([8]; 20 mM phosphate buffer, pH 6.88, 20 mM Phos): 33.6 h | 1st order Kobs ([8]; pH 2.74, Water): 0.00516 hr − 1 | half-life at 1 mg/mL ([8]; pH 2.74, Water): 134 h | 1st order Kobs ([8]; pH 3.52, 20 mM Phos): 0.00273 hr − 1 | 1st order Kobs ([8]; pH 5.05, 20 mM Am. Acetate): 0.00105 hr − 1 | 1st order Kobs ([8]; pH 5.64, 20 mM Phos): 0.00248 hr − 1 | 1st order Kobs ([8]; pH 6.5, 20 mM Phos): 0.01119 hr − 1 | 1st order Kobs ([8]; pH 6.88, 20 mM Phos): 0.02064 hr − 1 | half-life at 1 mg/mL ([8]; phosphate buffer, pH 5.64, 20 mM Phos): 280 h
Structure (SMILES): COc1ccc(CN2CCN(CCOC(=O)c3cccnc3)CC2)c(OC)c1OC [CV-8972, 2-[4-[(2,3,4-trimethoxyphenyl)methyl]piperazin-1-yl]ethyl pyridine-3-carboxylate]
number of TEAEs of mild severity ([3]; of 37 TEAEs): Thirty-six | number of TEAEs of moderate severity ([3]; of 37 TEAEs): 1 | tolerability ([3]; single doses of 50 mg and 200 mg MR formulations (4-hour, 8-hour) fasted, 200 mg 8-hour MR fed, healthy subjects): well tolerated | subjects with TEAEs considered not related to the study drug ([3]; single-dose MR part): 83.3% | subjects with TEAEs considered related to the study drug ([3]; single-dose MR part): 33.3% | subjects with TEAEs, SOC gastrointestinal disorders ([3]; single-dose MR part): 33.3% | subjects with TEAEs, SOC general disorders and administration site conditions ([3]; single-dose MR part): 58.3% | subjects with TEAEs, SOC nervous system disorders ([3]; single-dose MR part): 58.3% | subjects with drug-related TEAEs of pollakiuria ([3]; single-dose MR part): 16.7% | subjects reporting TEAEs ([3]; single-dose MR part, 12 subjects): 83.3% | subjects reporting TEAEs ([4]; 200 mg 8-hour MR formulation q12h fed, 5 days, 12 subjects): 100% | number of drug-related TEAEs of flushing (vascular disorders) ([4]; multiple-dose MR part): 2 | subjects with TEAEs considered not related to the study drug ([4]; multiple-dose MR part): 75% | subjects with TEAEs considered related to the study drug ([4]; multiple-dose MR part): 58.3% | subjects with TEAEs, SOC gastrointestinal disorders ([4]; multiple-dose MR part): 41.7% | subjects with TEAEs, SOC general disorders and administration site conditions ([4]; multiple-dose MR part): 33.3% | subjects with TEAEs, SOC musculoskeletal and connective tissue disorders ([4]; multiple-dose MR part): 33.3% | subjects with TEAEs, SOC nervous system disorders ([4]; multiple-dose MR part): 58.3% | subjects with TEAEs, SOC renal and urinary disorders (pollakiuria) ([4]; multiple-dose MR part): 33.3% | subjects with drug-related TEAEs of flushing (vascular disorders) ([4]; multiple-dose MR part): 16.7% | subjects with drug-related TEAEs of pollakiuria ([4]; multiple-dose MR part): 33.3% | subjects with drug-related TEAEs, nervous system disorders ([4]; multiple-dose MR part): 16.7% | hemodynamic changes and QTc-interval [5]: no findings of hemodynamic changes, nor changes in the QTc-interval

effect of food on exposure parameters Cmax, AUC0-t and AUC0-inf [1]: No evidence for an effect of food | effect of food on exposure parameters Cmax, AUC0-t and AUC0-inf [2]: No evidence for an effect of food | food effect estimate for AUC0-inf (ratio of geometric means fed/fasted) [2]: 0.97 | food effect estimate for AUC0-t (ratio of geometric means fed/fasted) [2]: 0.99 | food effect estimate for Cmax (ratio of geometric means fed/fasted) [2]: 1.10
Structure (SMILES): COc1ccc(CN2CCNCC2)c(OC)c1OC [trimetazidine, reference compound]
